Assay results reported in US10087229B2, “Peptide compound” (TAKEDA PHARMACEUTICAL COMPANY LIMITED, priority 2013, dated 2018).
Square brackets hold non-standard residues; d marks the D form. Peptide text beside a SMILES is read from it. * marks the point of attachment. Tyr(Nα-amidino) = N=C(N)N[C@@H](Cc1ccc(O)cc1)C(=O)*; αMeY = C[C@](N)(Cc1ccc(O)cc1)C(=O)O; αMeF = C[C@](N)(Cc1ccccc1)C(=O)O; Aib = CC(C)(N)C(=O)O; Bz = O=C(c1ccccc1)*

System: male C57BL/6J mouse
Test: 2-days continuous subcutaneous administration test (feeding suppressive activity)
Type: in vivo
Conditions: 10 nmol/kg/day, subcutaneous Alzet pump, 2-days cumulative food consumption, control (solvent alone) = 0%
Protocol: 2-Days Continuous Subcutaneous Administration Test
The feeding suppressive activity of a test compound was examined by the method described below.
The test compound was dissolved in a solvent (50% DMSO) so that sustained release would occur at 10 nmol/kg/day, and the solution was filled in the Alzet Pump (DURECT Corporation, model: 1003D). The pump thus filled with the solution to be administered was immersed in physiological saline for priming, and then used. The pump was embedded by the following method. Each male C57BL/6J mouse at 8-9 weeks of age (20-26° C., allowed to take food and water ad libitum; 12-hour bright-12-hour dark cycle) was anesthetized; the skin in the upper back thereof was incised, and the above-mentioned pump was embedded subcutaneously; the incision was sutured. After weighing, this mouse was returned to the rearing cage (reared alone), and given previously weighed food; food consumption as of 2 days after the start of administration was measured. The food consumption was calculated by subtracting the amount of remaining food from the weight of the food given on the day of the start of administration. When the food consumption of a control group receiving administration of the solvent alone was regarded as a suppression rate of 0%, the feeding suppressive activity of each test compound was evaluated on the basis of 2-days cumulative food consumption after the start of administration. The food intake suppression rate (%) of the test compound was defined as (Food consumption of the control group−Food consumption of the test compound-administered group)/Food consumption of the control group×100.

Row | SMILES | Food intake suppression (%)
1 | CC[C@H](C)[C@H](NC(=O)[C@H](C)NC(=O)[C@H](Cc1ccc(O)cc1)NC(=O)[C@H](CC(=O)O)NC(=O)[C@H](CO)NC(=O)[C@@H](NC(=O)[C@](C)(Cc1ccccc1)NC(=O)[C@@H](NC(=O)CNC(=O)[C@H](CCC(=O)O)NC(=O)C(C)(C)NC(=O)[C@@H](N)Cc1ccc(O)cc1)[C@@H](C)O)[C@@H](C)O)C(=O)NC(C)(C)C(=O)N[C@@H](CC(C)C)C(=O)N[C@@H](CC(=O)O)C(=O)N[C@@H](CCCCN)C(=O)N[C@@H](CCC(N)=O)C(=O)N[C@@H](C)C(=O)N[C@@H](CCC(N)=O)C(=O)N[C@@H](C)C(=O)N[C@@H](CCC(=O)O)C(=O)N[C@@H](Cc1ccccc1)C(=O)N[C@H](C(=O)N[C@@H](CCCCN)C(=O)N[C@@H](Cc1c[nH]c2ccccc12)C(=O)N[C@@H](CC(C)C)C(=O)N[C@@H](CC(C)C)C(=O)N[C@@H](CCCCN)C(=O)NCC(=O)NCC(=O)N1CCC[C@H]1C(=O)N[C@@H](CO)C(=O)N[C@@H](CO)C(=O)NCC(=O)N[C@@H](C)C(=O)N1CCC[C@H]1C(=O)N1CCC[C@H]1C(=O)N1CCC[C@H]1C(=O)N[C@@H](CO)C(N)=O)C(C)C [Example 5] (H-Y[Aib]EGT[αMeF]TSDYAI[Aib]LDKQAQAEFVKWLLKGGPSSGAPPPS-NH2) | 60.99
2 | CC[C@H](C)[C@H](NC(=O)C(C)(C)NC(=O)[C@H](Cc1ccc(O)cc1)NC(=O)[C@H](CC(=O)O)NC(=O)[C@H](CO)NC(=O)[C@@H](NC(=O)[C@](C)(Cc1ccccc1)NC(=O)[C@@H](NC(=O)CNC(=O)[C@H](CCC(=O)O)NC(=O)C(C)(C)NC(=O)[C@@H](N)Cc1ccc(O)cc1)[C@@H](C)O)[C@@H](C)O)C(=O)NC(C)(C)C(=O)N[C@@H](CC(C)C)C(=O)N[C@@H](CC(=O)O)C(=O)N[C@@H](CCCCN)C(=O)N[C@@H](CCC(N)=O)C(=O)N[C@@H](C)C(=O)N[C@@H](CCC(N)=O)C(=O)N[C@@H](C)C(=O)N[C@@H](CCC(=O)O)C(=O)N[C@@H](Cc1ccccc1)C(=O)N[C@H](C(=O)N[C@@H](CCCCN)C(=O)N[C@@H](Cc1c[nH]c2ccccc12)C(=O)N[C@@H](CC(C)C)C(=O)N[C@@H](CC(C)C)C(=O)N[C@@H](CCCCN)C(=O)NCC(=O)NCC(=O)N1CCC[C@H]1C(=O)N[C@@H](CO)C(=O)N[C@@H](CO)C(=O)NCC(=O)N[C@@H](C)C(=O)N1CCC[C@H]1C(=O)N1CCC[C@H]1C(=O)N1CCC[C@H]1C(=O)N[C@@H](CO)C(N)=O)C(C)C [Example 6] (H-Y[Aib]EGT[αMeF]TSDY[Aib]I[Aib]LDKQAQAEFVKWLLKGGPSSGAPPPS-NH2) | 65.20
3 | CC(C)C[C@H](NC(=O)[C@H](CC(C)C)NC(=O)[C@H](Cc1c[nH]c2ccccc12)NC(=O)[C@H](CCCCN)NC(=O)[C@@H](NC(=O)[C@H](Cc1ccccc1)NC(=O)[C@H](CCC(=O)O)NC(=O)[C@H](C)NC(=O)[C@H](CCC(N)=O)NC(=O)[C@H](C)NC(=O)[C@H](CCC(N)=O)NC(=O)[C@H](CCCCN)NC(=O)[C@H](CC(=O)O)NC(=O)[C@H](CC(C)C)NC(=O)C(C)(C)NC(=O)[C@H](CCCCN)NC(=O)C(C)(C)NC(=O)[C@H](Cc1ccc(O)cc1)NC(=O)[C@H](CC(=O)O)NC(=O)[C@H](CO)NC(=O)[C@@H](NC(=O)[C@](C)(Cc1ccccc1)NC(=O)[C@@H](NC(=O)CNC(=O)[C@H](CCC(=O)O)NC(=O)C(C)(C)NC(=O)[C@@H](N)Cc1ccc(O)cc1)[C@@H](C)O)[C@@H](C)O)C(C)C)C(=O)N[C@@H](CCCCN)C(=O)NCC(=O)NCC(=O)N1CCC[C@H]1C(=O)N[C@@H](CO)C(=O)N[C@@H](CO)C(=O)NCC(=O)N[C@@H](C)C(=O)N1CCC[C@H]1C(=O)N1CCC[C@H]1C(=O)N1CCC[C@H]1C(=O)N[C@@H](CO)C(=O)N[C@@H](CCCCN)C(N)=O [Example 9] (H-Y[Aib]EGT[αMeF]TSDY[Aib]K[Aib]LDKQAQAEFVKWLLKGGPSSGAPPPSK-NH2) | 45.23
4 | CC[C@H](C)[C@H](NC(=O)[C@H](C)NC(=O)[C@H](Cc1ccc(O)cc1)NC(=O)[C@H](CC(=O)O)NC(=O)[C@H](CO)NC(=O)[C@@H](NC(=O)[C@](C)(Cc1ccccc1)NC(=O)[C@@H](NC(=O)CNC(=O)[C@H](CCC(=O)O)NC(=O)C(C)(C)NC(=O)[C@@H](N)Cc1ccc(O)cc1)[C@@H](C)O)[C@@H](C)O)C(=O)NC(C)(C)C(=O)N[C@@H](CC(C)C)C(=O)N[C@@H](CC(=O)O)C(=O)N[C@@H](CCCCN)C(=O)N[C@@H](CCC(N)=O)C(=O)N[C@@H](C)C(=O)N[C@@H](CCC(N)=O)C(=O)N[C@@H](CO)C(=O)N[C@@H](CCC(=O)O)C(=O)N[C@@H](Cc1ccccc1)C(=O)N[C@H](C(=O)N[C@@H](CCCCN)C(=O)N[C@@H](Cc1c[nH]c2ccccc12)C(=O)N[C@@H](CC(C)C)C(=O)N[C@@H](CC(C)C)C(=O)N[C@@H](CCCCN)C(=O)NCC(=O)NCC(=O)N1CCC[C@H]1C(=O)N[C@@H](CO)C(=O)N[C@@H](CO)C(=O)NCC(=O)N[C@@H](C)C(=O)N1CCC[C@H]1C(=O)N1CCC[C@H]1C(=O)N1CCC[C@H]1C(=O)N[C@@H](CO)C(=O)N[C@@H](CCCCN)C(N)=O)C(C)C [Example 3] (H-Y[Aib]EGT[αMeF]TSDYAI[Aib]LDKQAQSEFVKWLLKGGPSSGAPPPSK-NH2) | 46.49
5 | CC[C@H](C)[C@H](NC(=O)C(C)(C)NC(=O)[C@H](Cc1ccc(O)cc1)NC(=O)[C@H](CC(=O)O)NC(=O)[C@H](CO)NC(=O)[C@@H](NC(=O)[C@](C)(Cc1ccccc1)NC(=O)[C@@H](NC(=O)CNC(=O)[C@H](CCC(=O)O)NC(=O)C(C)(C)NC(=O)[C@H](Cc1ccc(O)cc1)NC(=N)N)[C@@H](C)O)[C@@H](C)O)C(=O)NC(C)(C)C(=O)N[C@@H](CC(C)C)C(=O)N[C@@H](CC(=O)O)C(=O)N[C@@H](CCCCN)C(=O)N[C@@H](CCC(N)=O)C(=O)N[C@@H](C)C(=O)N[C@@H](CCC(N)=O)C(=O)N[C@@H](C)C(=O)N[C@@H](CCC(=O)O)C(=O)N[C@@H](Cc1ccccc1)C(=O)N[C@H](C(=O)N[C@@H](CCCCN)C(=O)N[C@@H](Cc1c[nH]c2ccccc12)C(=O)N[C@@H](CC(C)C)C(=O)N[C@@H](CC(C)C)C(=O)N[C@@H](CCCCN)C(=O)NCC(=O)NCC(=O)N1CCC[C@H]1C(=O)N[C@@H](CO)C(=O)N[C@@H](CO)C(=O)NCC(=O)N[C@@H](C)C(=O)N1CCC[C@H]1C(=O)N1CCC[C@H]1C(=O)N1CCC[C@H]1C(=O)N[C@@H](CO)C(=O)N[C@@H](CCCCN)C(N)=O)C(C)C [Example 22] ({Tyr(Nα-amidino)}-[Aib]EGT[αMeF]TSDY[Aib]I[Aib]LDKQAQAEFVKWLLKGGPSSGAPPPSK-NH2) | 35.51
6 | CC[C@H](C)[C@H](NC(=O)C(C)(C)NC(=O)[C@H](Cc1ccc(O)cc1)NC(=O)[C@H](CC(=O)O)NC(=O)[C@H](CO)NC(=O)[C@@H](NC(=O)[C@](C)(Cc1ccccc1)NC(=O)[C@@H](NC(=O)CNC(=O)[C@H](CCC(=O)O)NC(=O)C(C)(C)NC(=O)[C@H](Cc1ccc(O)cc1)NC(=O)c1ccccc1)[C@@H](C)O)[C@@H](C)O)C(=O)NC(C)(C)C(=O)N[C@@H](CC(C)C)C(=O)N[C@@H](CC(=O)O)C(=O)N[C@@H](CCCCN)C(=O)N[C@@H](CCC(N)=O)C(=O)N[C@@H](C)C(=O)N[C@@H](CCC(N)=O)C(=O)N[C@@H](C)C(=O)N[C@@H](CCC(=O)O)C(=O)N[C@@H](Cc1ccccc1)C(=O)N[C@H](C(=O)N[C@@H](CCCCN)C(=O)N[C@@H](Cc1c[nH]c2ccccc12)C(=O)N[C@@H](CC(C)C)C(=O)N[C@@H](CC(C)C)C(=O)N[C@@H](CCCCN)C(=O)NCC(=O)NCC(=O)N1CCC[C@H]1C(=O)N[C@@H](CO)C(=O)N[C@@H](CO)C(=O)NCC(=O)N[C@@H](C)C(=O)N1CCC[C@H]1C(=O)N1CCC[C@H]1C(=O)N1CCC[C@H]1C(=O)N[C@@H](CO)C(=O)N[C@@H](CCCCN)C(N)=O)C(C)C [Example 19] (Bz-Y[Aib]EGT[αMeF]TSDY[Aib]I[Aib]LDKQAQAEFVKWLLKGGPSSGAPPPSK-NH2) | 34.79
7 | CC[C@H](C)[C@H](NC(=O)C(C)(C)NC(=O)[C@H](Cc1ccc(O)cc1)NC(=O)[C@H](CC(=O)O)NC(=O)[C@H](CO)NC(=O)[C@@H](NC(=O)[C@](C)(Cc1ccccc1)NC(=O)[C@@H](NC(=O)CNC(=O)[C@H](CCC(=O)O)NC(=O)C(C)(C)NC(=O)[C@@H](N)Cc1ccc(O)cc1)[C@@H](C)O)[C@@H](C)O)C(=O)N[C@@](C)(Cc1ccc(O)cc1)C(=O)N[C@@H](CC(C)C)C(=O)N[C@@H](CC(=O)O)C(=O)N[C@@H](CCCCN)C(=O)N[C@@H](CCC(N)=O)C(=O)N[C@@H](C)C(=O)N[C@@H](CCC(N)=O)C(=O)N[C@@H](C)C(=O)N[C@@H](CCC(=O)O)C(=O)N[C@@H](Cc1ccccc1)C(=O)N[C@H](C(=O)N[C@@H](CCCCN)C(=O)N[C@@H](Cc1c[nH]c2ccccc12)C(=O)N[C@@H](CC(C)C)C(=O)N[C@@H](CC(C)C)C(=O)N[C@@H](CCCCN)C(=O)NCC(=O)NCC(=O)N1CCC[C@H]1C(=O)N[C@@H](CO)C(=O)N[C@@H](CO)C(=O)NCC(=O)N[C@@H](C)C(=O)N1CCC[C@H]1C(=O)N1CCC[C@H]1C(=O)N1CCC[C@H]1C(=O)N[C@@H](CO)C(=O)N[C@@H](CCCCN)C(N)=O)C(C)C [Example 17] (H-Y[Aib]EGT[αMeF]TSDY[Aib]I[αMeY]LDKQAQAEFVKWLLKGGPSSGAPPPSK-NH2) | 55.42
